The record followed here is patent US6337348B1, “Oxy-vanadium (iv) complexes having spermicidal activity” (Parker Hughes Institute, priority 1998, dated 2002).

The subject of assay [1] is human sperm. Put plainly: Sperm immobilization assay (SIA), motility by CASA. The assay is classed as cell-based. As to conditions: read-out: EC50 (concentration that decreases the proportion of motile sperm by 50%); 3 hours incubation at 37° C., BWW-0.3% BSA, serial 2-fold dilutions 250 μM to 1.9 μM, mean of two experiments. As for the experimental part:
To evaluate the spermicidal effects of complexes of oxovanadium (IV), VO(phen), VO(phen)2, VO(Me2—phen), VO(Me2—phen)2, VO(Cl—phen), VO(Cl—phen)2], VO(bipy), VO(bipy)2, VO(Me2—bipy), VO(Me2—bipy)2, and VO(Br,OH—acph)2, a highly motile fraction of pooled donor sperm (N=5) was prepared by discontinuous (90−45%). Percoll gradient (Conception Technologies, San Diego, Calif.) centrifugation and the “swim-up” method as described previously (Aitken et al., 1989, Biol. Reprod. 40:183-197). All donor specimens were obtained after informed consent and in compliance with the guidelines of the Hughes Institutional Review Board. Motile sperm (≳10×10^6/ml) were suspended in 1 ml of Biggers, Whitten, and Whittingham's medium (BWW) containing 0.3% BSA (fraction V; Sigma Chemical Co., St. Louis, Mo.) in the presence and absence of serial 2-fold dilutions of test substance (250 μM−1.9 μM) in 0.25% dimethyl sulfoxide (DMSO). For each experiment, fresh stock solutions (100 mM) of vanadium compounds were prepared in DMSO. A corresponding volume of DMSO (0.25%) was added to control sperm suspension. After 3 hours of incubation at 37° C., the percentage of motile sperm was evaluated by computer-assisted sperm motion analysis (CASA) as described previously (Aitken et al., 1989, Supra). The percentages of motilities were compared with those of sham-treated control suspensions of motile sperm.
For CASA, 4 μl each of sperm suspension was loaded into two 20 μm Microcell chambers placed onto a counting chamber at 37° C. At least 5-8 fields per chamber were scanned for analysis using a Hamilton Thorne Integrated Visual Optical System (IVOS) version 10 instrument (Hamilton Thorne Research Inc., Danvers, Mass.). Each field was recorded for 30 seconds. The Hamilton Thorne computer calibrations were set at 30 frames at a frame rate of 30 images/seconds. Other settings were as follows: minimum contrast 8; minimum size 6; low-size gate, 1.0; high-size gate,2.9; low-intensity gate, 0.6; high-intensity gate, 1.4; phase-contrast illumination; low path velocity at 10 μm/seconds and threshold straightness at 80%; magnification factor, 1.95. The performance of the analyzer was periodically checked using the playback function.
Results for the various numerical sperm functional parameters are presented as mean±standard deviation (SD) values. Comparison between oxovanadium (IV) complex-treated and control sperm relative to sperm motility parameters and apoptosis were performed using paired, two-tailed Student's T-test. A p value of <0.05 was considered significant.

In assay [2] the test system is human sperm. In words: Flow cytometric quantitation of sperm acrosome reaction (anti-CD46 mAb binding). The assay is classed as cell-based. As to conditions: tested at 100 μM, 3 hours, 37° C., mean of two experiments. As for the experimental part: In experiments designed to assess the comparative effects of oxovanadium (IV) complexes and N-9 on sperm acrosome reaction, motile fractions of sperm (10^7/ml) prepared from a single donor were incubated in 1 ml of BWW−0.3% BSA in the presence of 100 μM each of the vanadocene complexes, VO(phen), VO(phen)2, VO(Me2—phen), VO(Me2—phen)2, VO(Cl—phen), VO(Cl—phen)2, VO(bipy), VO(bipy)2, VO(Me2—bipy), VO(Me2—bipy)2, and VO(Br,OH—acph)2 in 0.1% DMSO, N-9, or DMSO (0.1%) alone at 37° C. After 3 hours, 5 μg/ml of purified, phycoerythrin (PE)-conjugated murine anti-CD46 monoclonal antibody (mAb; clone 122-2; Research Diagnostics, Flanders, N.J.) was added and the sperm suspensions incubated for an additional 30 minutes. The suspensions was washed in Tyrode's salt solution (Sigma) containing 1% BSA (1% TBSA) and the percentage of CD46-positive sperm were analyzed by flow cytometry using a FACS Vantage flow cytometer (Becton Dickinson, Mountain View, Calif.), as described previously (DeCruz et al., 1996, Biol Reprod. 54:1217-1228; DeCruz et al., 1992, Fertil. Seril., 58:633-636). Two separate experiments were performed to quantitate acrosomal loss following exposure of sperm to oxovanadium (IV) complexes.

As to nonoxynol-9 [N-9, reference compound], the EC50 in the assay with human sperm [1] is 78.5 µM. Also, the “Anti-CD46 positive sperm (%)” value with human sperm [2] stood at 86%.
